Experimental data from patent US7265087B1, “Exendin improves β-cell response in subjects with impaired glucose tolerance” (priority 1998, dated 2007).
Where “and” joins values, the source holds several entries; their conditions need not be identical. Equal entries are not always repeated. No end group written: not given here.

Experiments:
pancreas = settings: background statement; cited from earlier work
[1] = system: subjects with impaired glucose tolerance (IGT); test: 12 hour oscillatory glucose infusion with constant GLP-1 infusion, subjects with IGT; assay type: in vivo, human; design: Mean glucose 12 hour GLP-1 / Mean ISR 12 hour GLP-1: unit not given beside the values
Experimental: (§1) The studies described herein were performed in 10 subjects who were divided into two groups on the basis of their plasma glucose response to an oral glucose tolerance test using the criteria of the World Health Organization to define the degree of glucose tolerance. Five subjects had IGT, and five subjects had NIDDM. The gender, age, body mass index (BMI), basal levels of fasting glucose, 2 hour glucose, fasting insulin, and HBA1c for each subject are presented in Table 2. Diabetic subjects were older than those with IGT, but the groups were matched for by BMI. Mean fasting glucose levels and glycosylated hemoglobin concentrations were lower in the IGT group compared to subjects with NIDDM.
(§2) The coefficient of variation of this method was <2%. […] The average intraassay coefficient of variation was 5%. […] Diabetes 27, Suppl 1: 170-177, 1978.
(§3) All results are expressed as mean±SEM. Data analysis was performed using the Statistical Analysis System (SAS Version 6 Edition, for Personal Computers, SAS Institute, Inc., Cary, N.C.). The significance of differences within the individual induced by GLP-1 infusion was determined using paired t tests. Differences were considered to be significant if P<0.05.
(§4) Standard kinetic parameters for C-peptide clearance adjusted for age, sex and body surface area were utilized, Van Cauter E, Mestrez, F, Sturis J, Polonsky K S. Estimation of insulin secretion rates from C-peptide levels: comparison of individual and standard kinetic parameters for C-peptide clearance. Diabetes 41:368-377, 1992. These parameters were used to derive, in each 15 minute interval between blood sampling, the ISR from the plasma C-peptide concentrations by deconvolution as previously described.
(§5) Each subject was studied on three separate occasions. All studies were performed after a 12-hour overnight fast beginning at 0700 unless otherwise stated with subjects in the recumbent position. An intravenous catheter was placed in each forearm, one for blood sampling and one for administration of glucose and GLP-1 as needed. In all experiments, the arm containing the sampling catheter was maintained in a heating blanket to ensure arterialization of the venous sample. In the following examples, the GLP-1 was administered to the subjects in the GLP-1 (7-36) amide form.
(§6) In order to determine whether the β-cells were able to detect and respond to oscillations of glucose, glucose was infused in an oscillatory pattern with a small volume of saline for 12 hours.
(§7) To determine whether insulin secretion was entrained by glucose in individual subjects, the temporal profiles of insulin secretion were analyzed by spectral analysis. Spectral power analysis was used to evaluate the presence of tight coupling between oscillations in glucose and oscillations in ISR. This method evaluated the regularity of insulin secretory oscillations at a predetermined frequency. Spectral peaks correspond to the dominant periodicity and height of the peaks correspond to spectral power. Each spectrum was normalized assuming the total variance of each series to be 100% and was expressed as the normalized spectral power.

subjects with NIDDM = test: 12 hour oscillatory glucose infusion with constant GLP-1 infusion, subjects with NIDDM; assay type: in vivo, human; design: Mean glucose 12 hour GLP-1: unit not given beside the values
Experimental: as §1, §2, §3, §4
The diabetic subjects were treated with diet alone with the exception of one subject D07, who was previously treated with an oral hypoglycemic agent that was discontinued 4 weeks prior to the study. None of the diabetic patients had ever received insulin. All subjects were placed on a weight maintenance diet containing at least 200 g of carbohydrate per day for two weeks before the study.
as §5, §6, §7

SEQ ID NO:5 (EGTFTSDVSSYLEGQAAKEFIAWLVKGRG; mammalian)
production or release of insulin from the pancreas (pancreas): do not stimulate the production or release of insulin from the pancreas

CC[C@H](C)[C@H](NC(=O)[C@H](Cc1ccccc1)NC(=O)[C@H](CCC(=O)O)NC(=O)[C@H](CCCCN)NC(=O)[C@H](C)NC(=O)[C@H](C)NC(=O)[C@H](CCC(N)=O)NC(=O)CNC(=O)[C@H](CCC(=O)O)NC(=O)[C@H](CC(C)C)NC(=O)[C@H](Cc1ccc(O)cc1)NC(=O)[C@H](CO)NC(=O)[C@H](CO)NC(=O)[C@@H](NC(=O)[C@H](CC(=O)O)NC(=O)[C@H](CO)NC(=O)[C@@H](NC(=O)[C@H](Cc1ccccc1)NC(=O)[C@@H](NC(=O)CNC(=O)[C@H](CCC(=O)O)NC(=O)[C@H](C)NC(=O)[C@@H](N)Cc1c[nH]cn1)[C@@H](C)O)[C@@H](C)O)C(C)C)C(=O)N[C@@H](C)C(=O)N[C@@H](Cc1c[nH]c2ccccc12)C(=O)N[C@@H](CC(C)C)C(=O)N[C@H](C(=O)N[C@@H](CCCCN)C(=O)NCC(=O)N[C@@H](CCCNC(=N)N)C(N)=O)C(C)C [GLP-1, GLP-1 (7-36) amide]
Mean ISR 12 hour GLP-1 ([1]; IGT group, Mean ± SEM, n=5, GLP-1 0.4 pmol/kg/min for 12 hours): 654.2 ± 152.1
Mean glucose 12 hour GLP-1 ([1]; IGT group, Mean ± SEM, n=5, GLP-1 0.4 pmol/kg/min for 12 hours, P<0.05 vs saline): 6.35 ± 0.08
mean ISRs during GLP-1 infusion compared to saline infusion ([1]; IGT subjects): not significantly different
average drop of mean glucose levels during GLP-1 infusion compared to saline ([1]; IGT subjects, P<0.02, mean±SEM): 2.4 ± 0.6 mM
mean normalized spectral power for glucose during GLP-1 infusion ([1]; IGT subjects, P=0.19 vs saline, mean±SEM): 13.2±1.6
increase of mean insulin levels during GLP-1 infusion compared to saline ([1]; IGT subjects, P=0.32, mean±SEM): 102 ± 90 pmol/L
Mean glucagon levels during GLP-1 infusion ([1]; IGT subjects, P=0.94 vs saline, mean±SEM): 39.3 ± 5.4 pg/mL
Spectral power for ISR during GLP-1 infusion ([1]; IGT subjects, normalized, P<0.006 vs saline, mean±SEM): 8.9±1.7
periodicity of the dominant spectral peak in ISR during GLP-1 infusion ([1]; individual IGT subject, period of exogenous glucose infusion 144 minutes): 144 min
Mean ISR 12 hour GLP-1 ([1]; individual IGT subjects D01-D05, GLP-1 0.4 pmol/kg/min for 12 hours with oscillatory glucose infusion): 465.9 and 1042.7 and 365.9 and 1005.8 and 390.9
Mean glucose 12 hour GLP-1 ([1]; individual IGT subjects D01-D05, GLP-1 0.4 pmol/kg/min i.v. for 12 hours with oscillatory glucose infusion): 6.06 and 6.46 and 6.36 and 6.37 and 6.48
Spectral power during GLP-1 infusion, individual subject ([1]; one subject with IGT (D02, FIGS. 6A and 6B), 0.6 during saline): 8.9
pattern of insulin secretory responses to glucose during GLP-1 infusion ([1]; representative subjects with IGT, D01 and D02 (FIGS. 3B and 3D)): improved
Mean ISR 12 hour GLP-1 (subjects with NIDDM; NIDDM group, Mean ± SEM, n=5, GLP-1 0.4 pmol/kg/min for 12 hours): 508 ± 53.4
Mean glucose 12 hour GLP-1 (subjects with NIDDM; NIDDM group, Mean ± SEM, n=5, GLP-1 0.4 pmol/kg/min for 12 hours, P<0.05 vs saline): 9.40 ± 0.9
mean ISRs during GLP-1 infusion compared to saline infusion (subjects with NIDDM; NIDDM subjects): not significantly different
mean normalized spectral power for glucose during GLP-1 infusion (subjects with NIDDM; NIDDM subjects, P=0.18 vs saline, mean±SEM): 9.8±0.7
Mean glucagon levels during GLP-1 infusion (subjects with NIDDM; NIDDM subjects, P=0.4 vs saline, mean±SEM): 46.4 ± 3.2 pg/mL
increase of mean insulin levels during GLP-1 infusion compared to saline (subjects with NIDDM; NIDDM subjects, P=0.56, mean±SEM): 7 ± 12 pmol/L
Spectral power for ISR during GLP-1 infusion (subjects with NIDDM; NIDDM subjects, normalized, P=0.6 vs saline, mean±SEM): 1.5±0.8
average drop of mean glucose levels during GLP-1 infusion compared to saline (subjects with NIDDM; diabetics (NIDDM), P<0.0005, mean±SEM): 5.2 ± 0.5 mM
Mean ISR 12 hour GLP-1 (subjects with NIDDM; individual NIDDM subjects D06-D10, GLP-1 0.4 pmol/kg/min for 12 hours with oscillatory glucose infusion): 477.7 and 715.4 and 487.7 and 412.5 and 448.9
Mean glucose 12 hour GLP-1 (subjects with NIDDM; individual NIDDM subjects D06-D10, GLP-1 0.4 pmol/kg/min i.v. for 12 hours with oscillatory glucose infusion): 11.53 and 10.51 and 6.24 and 8.84 and 9.90
Spectral power during GLP-1 infusion, individual subject (subjects with NIDDM; one subject with NIDDM (D07, FIGS. 6C and 6D), 0.28 during saline): 1.51 and 1.5
pattern of insulin secretory responses to glucose during GLP-1 infusion (subjects with NIDDM; two subjects with NIDDM, D07 and D09 (FIGS. 4B and 4D)): not improved

SEQ ID NO:6 (EGTFTSDVSSYLEGQAAKEFIAWLVKGR-NH2)
production or release of insulin from the pancreas (pancreas): do not stimulate the production or release of insulin from the pancreas
